# Laboratory results from patent US20260048036A1, “CRYSTALLINE FORMS OF A GLUCOSYLCERAMIDE SYNTHASE INHIBITOR AND USES THEREOF” (ACELINK THERAPEUTICS, INC., priority 2022, published 2026).
# Where a chain is given by its changes, count along the chain named. Where “and” joins values, the source holds several entries; their conditions need not be identical. Equal entries are not always repeated.
# Columns and labels:
# [1] = Solubility at 37° C. in pH buffers and bio-relevant media
# [2] = target: T1, Glucosylceramide synthase (GCS) (Canis lupus familiaris, UniProt A0A8I3MXG6); experiment: GCS enzymatic assay with MDCK cell lysate; type: biochemical, canine
# T1 construct: The MDCK, K-562, and L6 cell lines all endogenously express GCS enzyme; host or cells: MDCK (canine kidney) cell lysate
# T1 sequence (A0A8I3MXG6 1-394): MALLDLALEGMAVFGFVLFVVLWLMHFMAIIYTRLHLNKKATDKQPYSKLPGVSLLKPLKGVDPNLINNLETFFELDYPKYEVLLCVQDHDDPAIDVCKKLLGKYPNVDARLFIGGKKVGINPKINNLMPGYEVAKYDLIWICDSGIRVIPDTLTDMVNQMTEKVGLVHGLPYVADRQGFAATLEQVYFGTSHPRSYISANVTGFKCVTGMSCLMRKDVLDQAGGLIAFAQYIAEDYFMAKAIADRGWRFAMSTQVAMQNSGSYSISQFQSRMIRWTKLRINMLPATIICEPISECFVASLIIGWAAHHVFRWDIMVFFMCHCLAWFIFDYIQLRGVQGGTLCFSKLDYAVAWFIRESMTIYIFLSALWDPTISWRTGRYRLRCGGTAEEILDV
# From the text: (§1) The reaction product, C6-NBD-glucosylceramide, could then be detected and quantified by LC-MS/MS. The inventors used this method to test and validate the effect of various GCS inhibitors on GCS enzyme activity from different species.
# (§2) The GCS enzyme activity was detected by using the fluorescent substrate, C6-NBD-ceramide, and monitoring the formation of the fluorescent reaction product, C6-NBD-glucosylceramide. First, the inventors used cell lysate derived from a canine kidney cell line (MDCK, ATCC Cat #CCL-34™) as the source of GCS and tested the inhibitory activity of several control and test compounds.
# (§3) GCS activity was evaluated using a GCS enzyme assay derived from MDCK or L6 cell lysates.
# (§4) MDCK or L6 cell lysates were prepared using M-PER in the presence of a protease inhibitor cocktail. Each 100 mm dish (100% confluent) was lysed with 250 μl of M-PER containing protease inhibitors. Protein concentration was determined using Pierce BCA protein assay kit.
# The final concentration of DMSO was 0.1% in both compound treated and DMSO only treated samples. Each individual reaction was terminated with 11 volumes of methanol:acetonitrile (6:5; containing 200 ng/ml Tolbutamide as internal control). After sufficient mixing, reactions were centrifuged at 2000 rpm for 10 mins, supernatant was injected into the LC-MS/MS for analysis.
# (§5) The quantitative analysis of C6-NBD-glucosylceramide was performed on a Shimadzu ultra-fast liquid chromatography coupled with API 4000 mass spectrometer. Analyst 1.5 software packages were used to control the LC-MS/MS system, as well as for data acquisition and processing.
# (§6) The C6-NBD-glucosylceramide reading was normalized first by dividing the peak area of C6-NBD-glucosylceramide with the peak area of the internal standard, and then the amount was calculated according to the standard curve generated in the same assay run. For the cell based assay results, the amount of C6-NBD-glucosylceramide was also normalized by the protein concentration of the cell samples.
# IC50 values were generated from sigmoidal dose-response (variable slope) curves with GraphPad Prism software (GraphPad Software, Inc., San Diego, CA) using the percent inhibition of C6-NBD-glucosylceramide accumulation relative to DMSO control.
# [3] = target: T2, Glucosylceramide synthase (GCS) (Rattus norvegicus, UniProt Q9R0E0); experiment: GCS enzymatic assay with L6 cell lysate; type: biochemical; conditions: 1 μM, N = 1, N = 2
# T2 construct: The MDCK, K-562, and L6 cell lines all endogenously express GCS enzyme; host or cells: L6 rat skeletal muscle cell lysate
# T2 sequence (Q9R0E0 1-394): T1 sequence (A0A8I3MXG6 1-394) with L8Q, V13L, A29S, D96E, G131A, K164R, R249K, A251S, T377A
# From the text: In this study, the inventors developed a reliable method to monitor GCS catalytic activity using the fluorescent substrate, C6-NBD-ceramide. The reaction product, C6-NBD-glucosylceramide, could then be detected and quantified by LC-MS/MS. The inventors used this method to test and validate the effect of various GCS inhibitors on GCS enzyme activity from different species.
# The MDCK, K-562, and L6 cell lines all endogenously express GCS enzyme and were used to test the effect of various GCS inhibitors on enzyme originating from different species. The GCS enzyme activity was detected by using the fluorescent substrate, C6-NBD-ceramide, and monitoring the formation of the fluorescent reaction product, C6-NBD-glucosylceramide. First, the inventors used cell lysate derived from a canine kidney cell line (MDCK, ATCC Cat #CCL-34™) as the source of GCS and tested the inhibitory activity of several control and test compounds. The inventors then used the human leukemia K-562 cell line (ATCC Cat #[…]) to test the effect of these GCS inhibitors on intact living cells. Finally, a cell lysate derived from a rat skeletal muscle cell line, L6 (ATCC Cat #[…]), was used to test the effect of these GCS inhibitors on rodent GCS enzyme.
# as §3, §4
# Sixty micrograms of MDCK lysate was incubated with various concentrations of compounds (0.00001 μM-1 μM) in 100 mM Tris buffer (pH 7.5) containing 10 mM MgCl2, 1 mM dithiothreitol, 1 mM EGTA, 2 mM NAD, 100 μM UDP-glucose, 10 μM C6-NBD-ceramide with 35 μM dioleoylphosphatidylcholine/5 μM sulfatide in a final reaction volume of 100 μl at 37° C. for 1 hour. The final concentration of DMSO was 0.1% in both compound treated and DMSO only treated samples. Each individual reaction was terminated with 11 volumes of methanol:acetonitrile (6:5; containing 200 ng/ml Tolbutamide as internal control). After sufficient mixing, reactions were centrifuged at 2000 rpm for 10 mins, supernatant was injected into the LC-MS/MS for analysis.
# For the assay with L6 cell lysate, different amounts of L6 cell lysate were used.
# as §5, §6
# To confirm the inhibitory activity of test compounds on GCS from different species, cells from rat were used. First, the presence of GCS activity was verified using various amounts of L6 cell lysate (FIG. 34, Table 26).
# [4] = target: T3, Glucosylceramide synthase (GCS) (Homo sapiens, UniProt Q16739); experiment: GCS cell-based assay with live K-562 cells; conditions: C6-NBD-glucosylceramide by LC-MS/MS
# T3 construct: The MDCK, K-562, and L6 cell lines all endogenously express GCS enzyme; host or cells: K-562 human leukemia cells, live
# T3 sequence (Q16739 1-394): T1 sequence (A0A8I3MXG6 1-394) with V20L, S196Y
# From the text: as §1, §2, §5
# The C6-NBD-glucosylceramide reading was normalized first by dividing the peak area of C6-NBD-glucosylceramide with the peak area of the internal standard, and then the amount was calculated according to the standard curve generated in the same assay run. For the cell based assay results, the amount of C6-NBD-glucosylceramide was also normalized by the protein concentration of the cell samples. […]
# [5] = Hygroscopicity by DVS at 25° C.; type: physicochemical
# [6] = Solid state stability, 1 week (HPLC purity, color, XRPD); conditions: for Bulk (XRPD) / Purity, Bulk (HPLC): Solid state, 1 week; for Purity, Bulk (HPLC): initial purity 99.8%
# [7] = 1 μM, 60 μg MDCK lysate/reaction, N = 1, N = 2
smiles,measurement,setting,value
"O=C(N[C@H](CN1CCCC1)[C@H](O)c1ccc(OC2CC2)c(Cl)c1)/C(=N/O)c1ccc2cc(Cl)ccc2c1 [Compound 1, (E)-N-((1R,2R)-1-(3-chloro-4-cyclopropoxyphenyl)-1-hydroxy-3-(pyrrolidin-1-yl)propan-2-yl)-2-(6-chloronaphthalen-2-yl)-2-(hydroxyimino)acetamide]",pH dependence of solubility,[1]; […],typical pH dependent solubility
"CCCCCCCC(=O)N[C@H](CN1CCCC1)[C@H](O)c1ccc2c(c1)OCCO2 [Eliglustat, reference compound]",C6-NBD-Ceramide (Normalized to internal control),[2]; [7],4.68 and 4.99
same,C6-NBD-Glucosylceramide Concentration,[2]; [7],49.8 nM and 59.3 nM
same,Inhibition,[2]; [7],94.01%
same,inhibition at 1 µM,[2]; [7],95%
same,IC50,"[2]; MDCK cell lysate as source of GCS, C6-NBD-glucosylceramide by LC-MS/MS",52.2 nM
same,C6-NBD-Ceramide (Normalized to internal control),[3]; 30 μg L6 lysate/reaction,5.98 and 6.37
same,C6-NBD-Glucosylceramide Concentration,[3]; 30 μg L6 lysate/reaction,31.2 nM and 51.0 nM
same,Inhibition,[3]; 30 μg L6 lysate/reaction,92.48%
same,inhibition at 1 µM,[3]; 30 μg L6 lysate/reaction,95.4%
same,C6-NBD-Ceramide (Normalized to internal control),[3]; 60 μg L6 lysate/reaction,6.47 and 5.46
same,C6-NBD-Glucosylceramide Concentration,[3]; 60 μg L6 lysate/reaction,50.2 nM and 44.1 nM
same,Inhibition,[3]; 60 μg L6 lysate/reaction,96.04%
same,inhibition at 1 µM,[3]; 60 μg L6 lysate/reaction,95.5%
same,C6-NBD-Ceramide (Normalized to internal control),[3]; 120 μg L6 lysate/reaction,5.82 and 6.23
same,C6-NBD-Glucosylceramide Concentration,[3]; 120 μg L6 lysate/reaction,48.4 nM and 57.9 nM
same,Inhibition,[3]; 120 μg L6 lysate/reaction,95.77%
same,inhibition at 1 µM,[3]; 120 μg L6 lysate/reaction,96.5%
same,C6-NBD-Ceramide (Normalized to internal control),[3]; 180 μg L6 lysate/reaction,5.60 and 5.41
same,C6-NBD-Glucosylceramide Concentration,[3]; 180 μg L6 lysate/reaction,63.6 nM and 63.3 nM
same,Inhibition,[3]; 180 μg L6 lysate/reaction,95.22%
same,inhibition at 1 µM,[3]; 180 μg L6 lysate/reaction,95.2%
same,C6-NBD-Ceramide (Normalized to internal control),[3]; 240 μg L6 lysate/reaction,4.96 and 5.12
same,C6-NBD-Glucosylceramide Concentration,[3]; 240 μg L6 lysate/reaction,56.2 nM and 57.7 nM
same,Inhibition,[3]; 240 μg L6 lysate/reaction,95.21%
same,inhibition at 1 µM,[3]; 240 μg L6 lysate/reaction,95.3%
O=C(N[C@H](CN1CCCC1)[C@H](O)c1ccc(OC2CC2)c(Cl)c1)/C(=N\O)c1ccc2cc(Cl)ccc2c1 [Geometric isomer of Compound 1],IC50,[4],14.8 nM
O=C(N[C@H](CN1CCCC1)[C@H](O)c1ccc(OC2CC2)c(Cl)c1)/C(=N/O)c1ccc2cc(Cl)ccc2c1.O=C(O)C[C@H](O)C(=O)O,higher solubility than that of the free form Crystalline Form A of Compound 1,"[1]; pH 4.5 buffer, 37° C.",about 3 folds
same,XRPD after DVS test,[5],No form change
same,hygroscopicity (DVS),[5],slightly hygroscopic
same,Desorp. (DVS),[5]; 0% RH,0.17%
same,Sorp. (water uptake by DVS),[5]; 0% RH,0.17%
same,Desorp. (DVS),[5]; 10% RH,0.22%
same,Sorp. (water uptake by DVS),[5]; 10% RH,0.22%
same,Desorp. (DVS),[5]; 20% RH,0.26%
same,Sorp. (water uptake by DVS),[5]; 20% RH,0.26%
same,Desorp. (DVS),[5]; 30% RH,0.30%
same,Sorp. (water uptake by DVS),[5]; 30% RH,0.30%
same,Desorp. (DVS),[5]; 40% RH,0.33%
same,Sorp. (water uptake by DVS),[5]; 40% RH,0.33%
same,Sorp. (water uptake by DVS),[5]; 50% RH,0.36%
same,Sorp. (water uptake by DVS),[5]; 60% RH,0.40%
same,Sorp. (water uptake by DVS),[5]; 70% RH,0.48%
same,Sorp. (water uptake by DVS),[5]; 80% RH,0.56%
same,Sorp. (water uptake by DVS),[5]; 90% RH,0.92%
same,water uptake increased from 40% RH to 90% RH,[5]; DVS,about 0.59%
same,chemical and physical stability,"[6]; 25° C./92% RH open container, 40° C./75% RH open container, 60° C. tight container, one week",chemically and physically stable
same,Bulk (XRPD),"[6]; 25° C./92% RH, open container",No form change
same,"Purity, Bulk (HPLC)","[6]; 25° C./92% RH, open container",99.8%
same,Bulk (XRPD),"[6]; 40° C./75% RH, open container",No form change
same,"Purity, Bulk (HPLC)","[6]; 40° C./75% RH, open container",99.8%
same,Bulk (XRPD),"[6]; 60° C., tight container",No form change
same,"Purity, Bulk (HPLC)","[6]; 60° C., tight container",99.8%
